From ChEMBL document CHEMBL5055685, “Discovery of the First Potent IDO1/IDO2 Dual Inhibitors: A Promising Strategy for Cancer Immunotherapy” (J Med Chem, 2021)
Calls of active or inactive are those of the source. No cut-off for these calls is given here.

What was measured:
[1] = molecular target: Calcium/calmodulin-dependent protein kinase type II subunit gamma (Homo sapiens) (UniProt Q13555); assay: Inhibition of CAMK2G (unknown origin) at 1 uM
[2] = molecular target: Tyrosine-protein kinase JAK3 (Homo sapiens) (UniProt P52333); assay: Inhibition of JAK3 (unknown origin) at 1 uM
[3] = molecular target: cGMP-dependent protein kinase 1 (Homo sapiens) (UniProt Q13976); assay: Inhibition of PKG1beta (unknown origin) at 1 uM
Sequence of cGMP-dependent protein kinase 1 (Homo sapiens) (Q13976 whole entry): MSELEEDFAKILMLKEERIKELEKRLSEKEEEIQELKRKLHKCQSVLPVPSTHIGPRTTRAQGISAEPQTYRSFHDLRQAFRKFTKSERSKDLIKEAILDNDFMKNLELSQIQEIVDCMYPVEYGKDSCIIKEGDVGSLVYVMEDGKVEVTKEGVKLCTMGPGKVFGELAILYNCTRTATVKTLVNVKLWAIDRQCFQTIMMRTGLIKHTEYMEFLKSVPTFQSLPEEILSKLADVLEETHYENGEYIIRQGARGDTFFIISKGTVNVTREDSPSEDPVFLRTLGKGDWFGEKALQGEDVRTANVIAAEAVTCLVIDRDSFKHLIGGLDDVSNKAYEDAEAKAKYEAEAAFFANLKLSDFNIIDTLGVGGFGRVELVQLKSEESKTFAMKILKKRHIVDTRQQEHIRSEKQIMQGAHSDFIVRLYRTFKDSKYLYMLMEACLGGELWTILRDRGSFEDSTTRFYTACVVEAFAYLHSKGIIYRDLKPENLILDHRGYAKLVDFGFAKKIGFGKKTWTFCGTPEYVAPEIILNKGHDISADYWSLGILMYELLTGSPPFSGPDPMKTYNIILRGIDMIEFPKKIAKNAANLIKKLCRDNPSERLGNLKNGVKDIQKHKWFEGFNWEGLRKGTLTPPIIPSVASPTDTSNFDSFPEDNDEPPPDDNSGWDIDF

[4] = tested on: Mus musculus; assay: In vivo inhibition of TDO in BALB/c mouse xenografted with human HCT-116 cells assessed as suppression of TDO expression in tumor by immunohistochemical assay; format: functional, organism-based
[5] = Half life in Sprague-Dawley rat at 5 mg/kg, iv; format: ADME, organism-based; details: in vivo
[6] = molecular target: Ephrin type-B receptor 3 (Homo sapiens) (UniProt P54753); assay: Inhibition of EPHB3 (unknown origin) at 1 uM
[7] = molecular target: Tyrosine-protein kinase Tec (Homo sapiens) (UniProt P42680); assay: Inhibition of TEC (unknown origin) at 1 uM
[8] = molecular target: Ribosomal protein S6 kinase alpha-5 (Homo sapiens) (UniProt O75582); assay: Inhibition of MSK1 (unknown origin) at 1 uM
[9] = molecular target: Mitogen-activated protein kinase 1 (Homo sapiens) (UniProt P28482); assay: Inhibition of ERK2 (unknown origin) at 1 uM
Sequence of Mitogen-activated protein kinase 1 (Homo sapiens) (P28482 whole entry): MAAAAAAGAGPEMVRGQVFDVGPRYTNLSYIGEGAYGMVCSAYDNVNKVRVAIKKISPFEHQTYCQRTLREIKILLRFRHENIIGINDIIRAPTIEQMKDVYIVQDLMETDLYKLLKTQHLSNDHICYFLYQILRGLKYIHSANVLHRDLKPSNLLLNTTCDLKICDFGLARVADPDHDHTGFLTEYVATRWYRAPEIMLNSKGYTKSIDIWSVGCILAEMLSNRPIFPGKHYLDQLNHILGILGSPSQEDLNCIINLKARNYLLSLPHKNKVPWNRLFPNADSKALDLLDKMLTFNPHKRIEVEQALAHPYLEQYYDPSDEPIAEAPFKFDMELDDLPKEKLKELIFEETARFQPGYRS

[10] = molecular target: Calcium/calmodulin-dependent protein kinase type II subunit delta (Homo sapiens) (UniProt Q13557); assay: Inhibition of CAMK2D (unknown origin) at 1 uM
Sequence of Calcium/calmodulin-dependent protein kinase type II subunit delta (Homo sapiens) (Q13557 whole entry): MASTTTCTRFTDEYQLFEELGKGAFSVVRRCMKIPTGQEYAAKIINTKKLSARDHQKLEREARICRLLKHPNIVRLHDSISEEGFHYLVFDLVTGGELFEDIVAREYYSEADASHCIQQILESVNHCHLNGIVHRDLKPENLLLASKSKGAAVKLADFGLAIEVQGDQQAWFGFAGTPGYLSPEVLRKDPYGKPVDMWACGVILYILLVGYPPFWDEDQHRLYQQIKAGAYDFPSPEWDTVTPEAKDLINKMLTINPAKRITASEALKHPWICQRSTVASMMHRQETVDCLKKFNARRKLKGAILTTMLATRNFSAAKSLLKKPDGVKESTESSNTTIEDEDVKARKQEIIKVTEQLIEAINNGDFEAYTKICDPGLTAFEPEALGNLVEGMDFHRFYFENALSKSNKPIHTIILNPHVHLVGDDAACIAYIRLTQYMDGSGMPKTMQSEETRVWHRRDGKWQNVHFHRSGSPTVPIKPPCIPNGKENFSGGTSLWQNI

[11] = AUC (0 to t) in Sprague-Dawley rat at 50 mg/kg, po; format: ADME, organism-based; set-up: dose 50 mg/kg, route po; details: in vivo
[12] = Apparent permeability across apical to basolateral side in human Caco-2 cells assessed as drug recovery; format: ADME, cell-based; details: read-out: Drug recovery
[13] = molecular target: Inhibitor of nuclear factor kappa-B kinase subunit beta (Homo sapiens) (UniProt O14920); assay: Inhibition of IKKbeta (unknown origin) at 1 uM
Sequence of Inhibitor of nuclear factor kappa-B kinase subunit beta (Homo sapiens) (O14920 whole entry): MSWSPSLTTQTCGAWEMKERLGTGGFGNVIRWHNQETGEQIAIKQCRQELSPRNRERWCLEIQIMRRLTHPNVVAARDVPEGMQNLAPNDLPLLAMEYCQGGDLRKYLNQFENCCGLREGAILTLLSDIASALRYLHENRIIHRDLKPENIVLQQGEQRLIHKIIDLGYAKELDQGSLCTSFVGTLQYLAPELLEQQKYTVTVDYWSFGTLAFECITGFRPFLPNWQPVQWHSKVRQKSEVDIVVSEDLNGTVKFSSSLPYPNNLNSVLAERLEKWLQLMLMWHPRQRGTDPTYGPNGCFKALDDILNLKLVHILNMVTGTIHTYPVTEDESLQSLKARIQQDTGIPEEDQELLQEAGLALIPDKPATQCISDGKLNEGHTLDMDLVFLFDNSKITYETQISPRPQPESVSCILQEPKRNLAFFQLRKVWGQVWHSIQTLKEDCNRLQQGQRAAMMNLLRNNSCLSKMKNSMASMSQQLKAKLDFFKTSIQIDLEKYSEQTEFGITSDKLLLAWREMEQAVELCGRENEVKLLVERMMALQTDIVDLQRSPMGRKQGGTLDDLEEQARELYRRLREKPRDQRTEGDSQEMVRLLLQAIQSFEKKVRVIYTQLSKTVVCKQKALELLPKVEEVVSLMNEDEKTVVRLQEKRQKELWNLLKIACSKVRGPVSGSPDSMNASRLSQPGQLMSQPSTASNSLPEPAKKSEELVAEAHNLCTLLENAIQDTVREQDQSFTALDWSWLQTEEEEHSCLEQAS

[14] = molecular target: Serine/threonine-protein kinase D2 (Homo sapiens) (UniProt Q9BZL6); assay: Inhibition of PKD2 (unknown origin) at 1 uM
[15] = molecular target: Receptor-interacting serine/threonine-protein kinase 2 (Homo sapiens) (UniProt O43353); assay: Inhibition of RIPK2 (unknown origin) at 1 uM
[16] = molecular target: Cyclin-dependent kinase 5/CDK5 activator 1 (Homo sapiens) (UniProt Q00535+Q15078); assay: Inhibition of CDK5/p25 (unknown origin) at 1 uM; format: protein-complex assay
Sequence of Cyclin-dependent kinase 5/CDK5 activator 1 (Homo sapiens) (Q00535 whole entry): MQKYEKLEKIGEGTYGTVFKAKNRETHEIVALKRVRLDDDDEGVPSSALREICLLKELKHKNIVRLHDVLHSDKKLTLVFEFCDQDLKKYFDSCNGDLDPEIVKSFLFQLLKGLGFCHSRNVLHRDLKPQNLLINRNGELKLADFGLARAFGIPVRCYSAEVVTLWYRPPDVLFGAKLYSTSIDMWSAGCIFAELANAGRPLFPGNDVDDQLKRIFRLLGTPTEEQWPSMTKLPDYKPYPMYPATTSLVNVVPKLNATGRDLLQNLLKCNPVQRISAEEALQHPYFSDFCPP
Sequence of Cyclin-dependent kinase 5/CDK5 activator 1 (Homo sapiens) (Q15078 99-307 partner limits assumed): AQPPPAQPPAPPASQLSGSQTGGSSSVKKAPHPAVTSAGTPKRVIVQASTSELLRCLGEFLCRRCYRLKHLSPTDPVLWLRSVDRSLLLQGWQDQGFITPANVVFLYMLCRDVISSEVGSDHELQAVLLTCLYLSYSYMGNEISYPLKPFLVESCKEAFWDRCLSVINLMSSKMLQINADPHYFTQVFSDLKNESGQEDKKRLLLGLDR

[17] = molecular target: Serine/threonine-protein kinase Nek3 (Homo sapiens) (UniProt P51956); assay: Inhibition of NEK3 (unknown origin) at 1 uM
[18] = molecular target: CDK18/Cyclin Y (Homo sapiens) (UniProt Q07002+Q8ND76); assay: Inhibition of CDK18/cyclin-Y (unknown origin) at 1 uM; format: protein-complex assay
[19] = molecular target: Phosphorylase b kinase gamma catalytic chain, liver/testis isoform (Homo sapiens) (UniProt P15735); assay: Inhibition of PHKgamma2 (unknown origin) at 1 uM
Sequence of Phosphorylase b kinase gamma catalytic chain, liver/testis isoform (Homo sapiens) (P15735 whole entry, canonical isoform): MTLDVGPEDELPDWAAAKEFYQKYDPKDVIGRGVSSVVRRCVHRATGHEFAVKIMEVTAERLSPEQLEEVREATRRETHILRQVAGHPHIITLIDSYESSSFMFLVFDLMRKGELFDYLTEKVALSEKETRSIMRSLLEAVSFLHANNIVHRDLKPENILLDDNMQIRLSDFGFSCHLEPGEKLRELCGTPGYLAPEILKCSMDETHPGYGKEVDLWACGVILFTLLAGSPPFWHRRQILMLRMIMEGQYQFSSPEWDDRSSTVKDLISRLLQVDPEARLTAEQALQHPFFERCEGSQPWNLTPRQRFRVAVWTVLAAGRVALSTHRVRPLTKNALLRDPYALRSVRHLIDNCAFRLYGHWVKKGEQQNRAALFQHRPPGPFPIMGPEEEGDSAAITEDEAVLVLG

[20] = molecular target: Dual specificity testis-specific protein kinase 2 (Homo sapiens) (UniProt Q96S53); assay: Inhibition of TESK2 (unknown origin) at 1 uM
[21] = molecular target: Testis-specific serine/threonine-protein kinase 2 (Homo sapiens) (UniProt Q96PF2); assay: Inhibition of TSSK2 (unknown origin) at 1 uM
[22] = molecular target: Tyrosine-protein kinase JAK2 (Homo sapiens) (UniProt O60674); assay: Inhibition of JAK2 (unknown origin) at 1 uM
[23] = Protein binding in ICR mouse plasma by equilibrium dialysis; format: ADME, cell-free; details: read-out: PPB (converted)
[24] = molecular target: Activated CDC42 kinase 1 (Homo sapiens) (UniProt Q07912); assay: Inhibition of ACK1 (unknown origin) at 1 uM
[25] = molecular target: Macrophage colony-stimulating factor 1 receptor (Homo sapiens) (UniProt P07333); assay: Inhibition of FMS (unknown origin) at 1 uM
[26] = molecular target: Calcium/calmodulin-dependent protein kinase type 1 (Homo sapiens) (UniProt Q14012); assay: Inhibition of CAMK1A (unknown origin) at 1 uM
[27] = tested on: HCT-116; assay: Antitumor immunity in BALB/c mouse xenografted with human HCT-116 cells assessed as induction of apoptosis of CD4+ T-lymphocytes in spleen by propidium iodide staining based flow cytometry analysis (reference value: 33.9 %); format: functional
[28] = molecular target: Mitogen-activated protein kinase 13 (Homo sapiens) (UniProt O15264); assay: Inhibition of p38delta (unknown origin) at 1 uM
[29] = AUC (0 to infinity) in Sprague-Dawley rat at 5 mg/kg, iv; format: ADME, organism-based; set-up: time infinity, dose 5 mg/kg, route iv; details: Sprague-Dawley, in vivo
[30] = molecular target: Phosphorylase b kinase gamma catalytic chain, skeletal muscle/heart isoform (Homo sapiens) (UniProt Q16816); assay: Inhibition of PHKgamma1 (unknown origin) at 1 uM
Sequence of Phosphorylase b kinase gamma catalytic chain, skeletal muscle/heart isoform (Homo sapiens) (Q16816 whole entry, looked up, canonical isoform): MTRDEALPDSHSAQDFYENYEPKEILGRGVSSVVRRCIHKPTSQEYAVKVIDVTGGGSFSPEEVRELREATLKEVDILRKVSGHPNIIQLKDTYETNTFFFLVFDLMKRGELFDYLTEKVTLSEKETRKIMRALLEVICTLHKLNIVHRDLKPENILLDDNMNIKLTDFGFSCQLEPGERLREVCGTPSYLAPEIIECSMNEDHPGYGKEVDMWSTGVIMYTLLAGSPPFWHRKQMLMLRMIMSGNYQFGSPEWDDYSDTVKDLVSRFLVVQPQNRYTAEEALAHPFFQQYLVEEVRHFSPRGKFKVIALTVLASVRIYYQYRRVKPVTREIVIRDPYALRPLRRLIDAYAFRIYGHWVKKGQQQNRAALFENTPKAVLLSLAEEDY

[31] = molecular target: Tyrosine-protein kinase Fes/Fps (Homo sapiens) (UniProt P07332); assay: Inhibition of FES (unknown origin) at 1 uM
[32] = molecular target: Tyrosine-protein kinase TXK (Homo sapiens) (UniProt P42681); assay: Inhibition of TXK (unknown origin) at 1 uM
[33] = molecular target: Mitogen-activated protein kinase kinase kinase 5 (Homo sapiens) (UniProt Q99683); assay: Inhibition of ASK1 (unknown origin) at 1 uM
[34] = molecular target: Tyrosine-protein kinase ITK/TSK (Homo sapiens) (UniProt Q08881); assay: Inhibition of ITK (unknown origin) at 1 uM
[35] = molecular target: Ephrin type-B receptor 2 (Homo sapiens) (UniProt P29323); assay: Inhibition of EPHB2 (unknown origin) at 1 uM
[36] = molecular target: Myosin light chain kinase 2, skeletal/cardiac muscle (Homo sapiens) (UniProt Q9H1R3); assay: Inhibition of MLCK2 (unknown origin) at 1 uM
[37] = molecular target: Serine/threonine-protein kinase VRK1 (Homo sapiens) (UniProt Q99986); assay: Inhibition of VRK1 (unknown origin) at 1 uM
[38] = molecular target: Rhodopsin kinase GRK1 (Homo sapiens) (UniProt Q15835); assay: Inhibition of GRK1 (unknown origin) at 1 uM
Sequence of Rhodopsin kinase GRK1 (Homo sapiens) (Q15835 whole entry): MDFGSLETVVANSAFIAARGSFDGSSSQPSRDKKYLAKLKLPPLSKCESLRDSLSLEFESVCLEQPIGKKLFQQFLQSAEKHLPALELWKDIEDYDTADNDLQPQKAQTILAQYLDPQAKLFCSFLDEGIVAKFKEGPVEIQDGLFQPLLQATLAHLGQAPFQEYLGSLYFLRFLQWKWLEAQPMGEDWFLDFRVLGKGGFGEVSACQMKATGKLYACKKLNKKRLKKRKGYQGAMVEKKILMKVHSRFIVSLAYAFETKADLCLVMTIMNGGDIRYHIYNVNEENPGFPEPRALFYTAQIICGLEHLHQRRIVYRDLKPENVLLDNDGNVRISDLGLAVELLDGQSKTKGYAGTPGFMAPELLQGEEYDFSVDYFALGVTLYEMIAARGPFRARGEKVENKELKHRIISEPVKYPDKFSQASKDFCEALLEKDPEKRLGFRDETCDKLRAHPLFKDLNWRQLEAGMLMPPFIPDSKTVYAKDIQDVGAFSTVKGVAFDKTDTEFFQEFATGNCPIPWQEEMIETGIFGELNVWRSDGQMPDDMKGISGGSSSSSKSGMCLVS

[39] = molecular target: Protein kinase C zeta type (Homo sapiens) (UniProt Q05513); assay: Inhibition of PKCzeta (unknown origin) at 1 uM
[40] = molecular target: CDK7/Cyclin H/MNAT1 (Homo sapiens) (UniProt P51946+P50613+P51948); assay: Inhibition of CDK7/cyclin-H/MNAT1 (unknown origin) at 1 uM; format: protein-complex assay
[41] = molecular target: Serine/threonine-protein kinase MARK2 (Homo sapiens) (UniProt Q7KZI7); assay: Inhibition of MARK2 (unknown origin) at 1 uM
Sequence of Serine/threonine-protein kinase MARK2 (Homo sapiens) (Q7KZI7 whole entry): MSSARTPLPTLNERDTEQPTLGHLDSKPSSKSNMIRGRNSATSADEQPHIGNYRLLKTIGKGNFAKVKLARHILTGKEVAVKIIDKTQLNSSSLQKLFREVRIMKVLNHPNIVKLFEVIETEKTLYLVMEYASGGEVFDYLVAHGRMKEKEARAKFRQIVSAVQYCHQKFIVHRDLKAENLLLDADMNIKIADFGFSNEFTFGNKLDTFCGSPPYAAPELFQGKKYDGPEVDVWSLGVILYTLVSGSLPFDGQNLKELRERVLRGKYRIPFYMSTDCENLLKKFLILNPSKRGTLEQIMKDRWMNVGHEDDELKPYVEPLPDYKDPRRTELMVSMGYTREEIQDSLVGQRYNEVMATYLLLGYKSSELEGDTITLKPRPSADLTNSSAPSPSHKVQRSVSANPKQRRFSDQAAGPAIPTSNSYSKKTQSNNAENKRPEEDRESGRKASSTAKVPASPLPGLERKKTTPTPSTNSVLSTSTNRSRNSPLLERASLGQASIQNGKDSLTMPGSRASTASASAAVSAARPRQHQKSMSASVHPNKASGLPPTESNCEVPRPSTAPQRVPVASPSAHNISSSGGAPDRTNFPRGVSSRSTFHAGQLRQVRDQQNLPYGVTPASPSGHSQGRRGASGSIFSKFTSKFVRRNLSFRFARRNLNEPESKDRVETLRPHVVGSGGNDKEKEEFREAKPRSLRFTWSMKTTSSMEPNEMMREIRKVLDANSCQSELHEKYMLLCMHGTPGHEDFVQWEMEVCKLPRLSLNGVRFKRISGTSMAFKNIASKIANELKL

[42] = tested on: HCT-116; assay: Antitumor immunity in BALB/c mouse xenografted with human HCT-116 cells assessed as early Treg cells in spleen by propidium iodide staining based flow cytometry analysis (reference value: 9.33 %); format: functional
[43] = molecular target: Serine/threonine-protein kinase/endoribonuclease IRE2 (Homo sapiens) (UniProt Q76MJ5); assay: Inhibition of ERN2 (unknown origin) at 1 uM
[44] = Protein binding in Sprague-Dawley rat plasma by equilibrium dialysis; format: ADME, cell-free; details: read-out: PPB (converted)

For `OCCOCc1cn(CCNc2nonc2/C(=N/O)Nc2ccc(F)c(Br)c2)nn1`, the inhibition [1] was “inactive”, the inhibition [2] was “inactive” and the inhibition [3] was “inactive”. The inhibition [4] was “inactive”, the half-life [5] was 36.6 min and the inhibition [6] was “inactive”. For the same molecule, the inhibition [7] was “inactive”, the inhibition [8] was “inactive” and the inhibition [9] was “inactive”. The inhibition [10] was “inactive”, the AUC(0-t) [11] was 3640 ng·h/mL and the recovery [12] was 91.1%. The inhibition [13] was “inactive”, the inhibition [14] was “inactive” and the inhibition [15] was “inactive”. The inhibition [16] was “inactive”, the inhibition [17] was “inactive” and the inhibition [18] was “inactive”. The inhibition [19] was “inactive”, the inhibition [20] was “inactive” and the inhibition [21] was “inactive”. The inhibition [22] was “inactive”, the fraction unbound [23] was 0.0968 and the inhibition [24] was “inactive”. The inhibition [25] was “inactive”, the inhibition [26] was “inactive” and the Activity [27] was 15.3%. The inhibition [28] was “inactive”, the AUC(0-inf) [29] was 3050 ng·h/mL and the inhibition [30] was “inactive”. The inhibition [31] was “inactive”, the inhibition [32] was “inactive” and the inhibition [33] was “inactive”. The inhibition [34] was “inactive”, the inhibition [35] was “inactive” and the inhibition [36] was “inactive”. The inhibition [37] was “inactive”, the inhibition [38] was “inactive” and the inhibition [39] was “inactive”. The inhibition [40] was “inactive”, the inhibition [41] was “inactive” and the Activity [42] was 4.54%. The inhibition [43] was “inactive” and the fraction unbound [44] was 0.0672.
